Columns and labels:
Assay in all cases: area under dose-response curve of surviving fraction (unscaled, Aref=0) (surviving fraction x log10(nM)); higher = more resistant
Conditions in all cases: exposure time: 5 days; dose range 0.5-1000 nM
[1] = compound: CCn1c(C(=O)N(C2CC2)C2CC2)cc2c3c(ncn3C)c(Nc3cc(C)n(C)n3)nc21
In short: (§1)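 Surviving fractions were fitted by 3-parameter logistic regression in the drc R package to give dose-response survival curves. They came from tumour cell lines treated for five days with eight inhibitor concentrations from 0.5 to 1000 nM and read by CellTiter-Glo luminescence against DMSO-only wells. The area under the curve is the unscaled activity area. It was calculated over log10 dose with Aref = 0.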

SOTRASTAURIN/AEB071 = compound: CN1CCN(c2nc(C3=C(c4c[nH]c5ccccc45)C(=O)NC3=O)c3ccccc3n2)CC1 [SOTRASTAURIN/AEB071]
In short: as §1

[2] = compound: CNCc1ccc(-c2[nH]c3cc(F)cc4c3c2CCNC4=O)cc1
In short: as §1

FORETINIB = compound: COc1cc2c(Oc3ccc(NC(=O)C4(C(=O)Nc5ccc(F)cc5)CC4)cc3F)ccnc2cc1OCCCN1CCOCC1 [FORETINIB]
In short: as §1

[3] = compound: COc1cc2ncnc(Nc3ccc(F)c(Cl)c3)c2cc1NC(=O)/C=C/CN1CCCCC1
In short: as §1

[4] = compound: C[C@@H](Oc1cc(-c2cnn(C3CCNCC3)c2)cnc1N)c1c(Cl)ccc(F)c1Cl
In short: as §1

ABIRATERONE = compound: C[C@]12CC[C@H](O)CC1=CC[C@@H]1[C@@H]2CC[C@]2(C)C(c3cccnc3)=CC[C@@H]12 [ABIRATERONE]
In short: as §1

DASATINIB = compound: Cc1nc(Nc2ncc(C(=O)Nc3c(C)cccc3Cl)s2)cc(N2CCN(CCO)CC2)n1 [DASATINIB]
In short: as §1

TEMOZOLOMIDE = compound: Cn1nnc2c(C(N)=O)ncn2c1=O [TEMOZOLOMIDE]
In short: as §1

MLN-4924 = compound: NS(=O)(=O)OC[C@@H]1C[C@@H](n2ccc3c(N[C@H]4CCc5ccccc54)ncnc32)C[C@@H]1O [MLN-4924]
In short: as §1

OLAPARIB = compound: O=C(c1cc(Cc2n[nH]c(=O)c3ccccc23)ccc1F)N1CCN(C(=O)C2CC2)CC1 [OLAPARIB]
In short: as §1

XAV-939 = compound: Oc1nc(-c2ccc(C(F)(F)F)cc2)nc2c1CSCC2 [XAV-939]
In short: as §1

SORAFENIB = compound: CNC(=O)c1cc(Oc2ccc(NC(=O)Nc3ccc(Cl)c(C(F)(F)F)c3)cc2)ccn1 [SORAFENIB]
In short: as §1

CRIZOTINIB = compound: C[C@@H](Oc1cc(-c2cnn(C3CCNCC3)c2)cnc1N)c1c(Cl)ccc(F)c1Cl [CRIZOTINIB]
In short: as §1

Row | Test System | area under dose-response curve [1] | area under dose-response curve (SOTRASTAURIN/AEB071) | area under dose-response curve [2] | area under dose-response curve (FORETINIB) | area under dose-response curve [3] | area under dose-response curve [4] | area under dose-response curve (ABIRATERONE) | area under dose-response curve (DASATINIB) | area under dose-response curve (TEMOZOLOMIDE) | area under dose-response curve (MLN-4924) | area under dose-response curve (OLAPARIB) | area under dose-response curve (XAV-939) | area under dose-response curve (SORAFENIB) | area under dose-response curve (CRIZOTINIB)
1 | NCIH441 LUNG | 3.28 | 3.4 | 3.19 | 3.13 | 3.01 | 3.16 | 3.41 | 2.55 | 3.69 | 2.76 | 3.38 | 3.35 |  | 
2 | NOS1 BONE | 3.62 | 3.36 | 2.83 | 2.58 | 2.84 | 3.13 | 3.87 | 1.42 | 3.67 |  | 2.8 |  | 3.01 | 3.87
3 | NY BONE | 3.17 | 3.48 |  | 2.96 | 3.15 | 2.97 | 3.56 | 2 | 3.45 | 2.47 | 3.27 | 3.27 | 3.41 | 
4 | PCI30 HEADNECK | 3.14 | 3.42 | 3.14 | 3.16 | 1.71 | 3.12 | 3.58 | 2.63 | 3.28 | 2.6 | 3.15 |  |  | 
5 | RDES SOFT TISSUE | 4.17 | 3.42 | 3.42 | 2.73 |  | 2.6 | 4.04 | 2.92 | 3.9 | 2.44 | 3.41 | 4 | 3.76 | 
6 | SAOS2 BONE | 3.41 | 3.08 | 2.96 | 3.04 | 3.15 | 2.88 | 3.89 | 1.69 | 3.9 | 1.97 | 2.98 | 3.94 |  | 
7 | SCC003 HEADNECK |  | 3.42 | 3.45 | 3.21 | 2.29 | 3.05 | 3.79 | 2.38 | 3.57 | 3.02 | 3.28 |  | 3.6 | 
8 | SCC36 HEADNECK | 3.52 | 3.02 | 2.8 | 3.13 | 1.81 | 2.51 | 3.63 | 1.53 | 3.63 | 2.11 | 2.84 |  | 3.74 | 
9 | SCC47 HEADNECK | 3.18 | 3.57 | 3.48 |  | 2.3 | 3.1 | 3.98 | 2.21 | 3.61 | 2.46 | 3.46 | 3.53 | 3.24 | 
10 | SCC90 HEADNECK | 3.25 | 2.96 | 3.19 |  | 1.84 | 3.19 | 4.01 | 2.21 | 3.49 | 1.64 | 3.24 | 3.4 |  | 3.27
11 | SG27 HEADNECK | 3.25 | 3.57 |  | 3.23 | 3.28 | 3.15 | 3.22 | 2.16 | 3.68 | 2.95 | 3.27 |  | 3.79 | 3.57
12 | SG28 HEADNECK | 3.25 |  |  |  | 1.87 |  | 3.46 |  |  |  |  | 3.21 | 4.1 | 
13 | SG31 HEADNECK |  |  | 3.16 |  | 2.06 | 2.66 | 3.4 | 1.99 | 3.5 | 2.42 | 3.18 | 3.04 | 3.79 | 
14 | SG32 HEADNECK | 3.55 |  | 2.77 | 2.95 | 2.87 | 2.92 |  | 1.29 | 4.29 | 2.59 |  | 3.64 | 4.91 | 
15 | SIHA CERVIX | 3.23 |  | 3.29 | 3.11 |  | 3.14 | 3.9 | 2.35 | 3.34 | 2.59 |  | 3.55 | 3.73 | 
16 | SJSA1 BONE | 3.42 |  | 5.61 | 5.45 | 3.54 | 3.21 | 3.63 | 3.23 | 3.28 |  |  | 3.64 | 3.31 | 
17 | SKBR3 BREAST | 3.41 | 3.01 | 2.69 |  | 1.36 | 2.88 | 3.53 | 2.96 | 3.54 | 2.05 | 3.09 |  | 3.35 | 
18 | SUM44 BREAST | 3.39 |  | 3.09 | 3.91 | 3.24 | 3.1 | 3.4 | 3.11 | 4.14 |  | 3.02 | 3.52 | 3.43 | 
19 | SUM149.B1*.S BREAST | 3.62 | 3.26 |  |  | 3.06 | 3.1 | 3.93 | 2.05 | 3.73 | 2.42 |  | 3.73 | 3.92 | 3.8
20 | SUM159 BREAST |  | 3.57 | 3.53 |  | 3.52 | 3.42 | 3.35 | 2.84 | 3.44 | 3.12 | 3.45 |  | 3.15 | 3.63
21 | VP229 BREAST | 3.59 |  | 3.13 |  | 1.74 | 3.2 | 3.53 | 1.98 | 3.86 | 2.74 |  | 4.36 | 3.66 | 
22 | YAMATO SYNOVIAL | 4.14 | 3.66 |  | 2.34 | 4.37 | 1.83 | 4.72 | 2.5 | 4.22 |  |  | 4.04 | 4.27 | 2.3
23 | ZR751 BREAST | 2.89 | 3.67 | 3.07 |  | 2.6 | 2.77 |  | 2.99 | 3.24 |  | 3.57 | 2.68 | 3.69 | 

— the supplement of paper PMC6045584
